Measurements as given in patent US20240252488A1 (KOREA RESEARCH INSTITUTE OF CHEMICAL TECHNOLOGY, priority 2020, published 2024).

Tests used:
FADD−/− Jurkat cells = experiment: Necroptosis inhibition assay, TNF-α-induced necroptosis (CellTiter-Glo 2.0); assay type: cell-based, human; conditions: TNF-α 15 ng/mL; for Necroptosis inhibition assay (Rescue %) 1 μM: compound 1 μM; for Necroptosis inhibition assay (Rescue %) 10 μM: compound 10 μM
In short: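 Tested at three fixed concentrations (0.1, 1, 10 μM final) with a 30-minute room-temperature preincubation ahead of 15 ng/mL TNF-α challenge lasting 20 to 24 hours. Inhibition rate and cytotoxicity derive from ATP luminescence.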

MLKL [1] = target: T1, MLKL (Homo sapiens, UniProt Q8NB16); experiment: MLKL degradation assay in HepG2 cell line (western blot); assay type: cell-based; design: endogenous in cells; host or cells: HepG2 or HaCaT; conditions: cell line not given; for Degradation assay (Degradation %) 1 μM: compound 1 μM; for Degradation assay (Degradation %) 10 μM: compound 10 μM
T1 sequence (Q8NB16 1-471): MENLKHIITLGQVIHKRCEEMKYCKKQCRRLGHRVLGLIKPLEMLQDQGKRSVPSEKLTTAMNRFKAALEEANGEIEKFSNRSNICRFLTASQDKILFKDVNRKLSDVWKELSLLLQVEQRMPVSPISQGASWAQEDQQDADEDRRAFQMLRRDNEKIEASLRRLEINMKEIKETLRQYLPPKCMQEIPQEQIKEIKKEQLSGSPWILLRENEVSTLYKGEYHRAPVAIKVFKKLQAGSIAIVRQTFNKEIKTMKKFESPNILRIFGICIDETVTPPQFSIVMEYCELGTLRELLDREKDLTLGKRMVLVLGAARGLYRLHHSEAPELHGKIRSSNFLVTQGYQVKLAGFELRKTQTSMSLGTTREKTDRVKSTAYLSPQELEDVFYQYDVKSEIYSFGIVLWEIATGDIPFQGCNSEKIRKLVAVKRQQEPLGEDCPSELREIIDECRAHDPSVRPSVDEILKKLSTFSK
In short: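 Degradation is judged from MLKL band intensity on immunoblots of HepG2 lysates taken after 20-24 hours of compound at final 1 or 10 μM.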

MLKL [2] = target: T1, MLKL; experiment: Measurement of binding affinity with MLKL receptor (competitive binding assay, Kd); design: made in house; host or cells: HEK 293 cell line (T7 phage in E. coli BL21-derived host is also described)
In short: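 Competition binding of kinase tagged with DNA for qPCR detection, expressed in HEK 293 cells, against immobilized ligand on beads. Final DMSO 0.9%. Kd derived from kinase amount in eluates measured by qPCR.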

Degradation assay (Degradation %) 1 μM (MLKL [1])	Degradation assay (Degradation %) 10 μM (MLKL [1])	Kd (MLKL [2])	Compound	Necroptosis inhibition assay (Rescue %) 1 μM (FADD−/− Jurkat cells)	Necroptosis inhibition assay (Rescue %) 10 μM (FADD−/− Jurkat cells)	Necroptosis inhibition assay (Rescue %) 1 μM (FADD−/− Jurkat cells; FADD−/− Jurkat cells)	Necroptosis inhibition assay (Rescue %) 10 μM (FADD−/− Jurkat cells; FADD−/− Jurkat cells)
75.95%	66.16%	1.3 nM	Nc1ncc(-c2cnn(C3CCN(CCCN4CCN(C(=O)COc5ccc6c(c5)C(=O)N(C5CCC(=O)NC5=O)C6=O)CC4)CC3)c2)nc1C(=O)OC(C(=O)Nc1ccc(F)cc1)c1ccccc1 (centres unmarked) [TDH-244, 2-((4-fluorophenyl)amino)-2-oxo-1-phenylethyl 3-amino-6-(1-(1-(3-(4-(2-((2-(2,6-dioxopiperidin-3-yl)-1,3-dioxoisoindolin-5-yl)oxy)acetyl)piperazin-1-yl)propyl)piperidin-4-yl)-1H-pyrazol-4-yl)pyrazine-2-carboxylate]	92.11%	65.67%	–	–
63.51%	73.71%	1.7 nM	Nc1ncc(-c2cnn(C3CCN(CC4CCN(CC5CCN(c6ccc7c(c6)C(=O)N(C6CCC(=O)NC6=O)C7=O)CC5)CC4)CC3)c2)nc1C(=O)O[C@@H](C(=O)Nc1ccc(F)cc1)c1ccccc1 (stereo partly drawn) [TDH-473, (R)-2-((4-fluorophenyl)amino)-2-oxo-1-phenylethyl 3-amino-6-(1-(1-((1-((1-(2-(2,6-dioxopiperidin-3-yl)-1,3-dioxoisoindolin-5-yl)piperidin-4-yl)methyl)piperidin-4-yl)methyl)piperidin-4-yl)-1H-pyrazol-4-yl)pyrazine-2-carboxylate]	–	–	28.37%	−13.59%
18.62%	57.41%	1.2 nM	Nc1ncc(-c2cnn(C3CCN(CC4CCN(CC5CCN(C(=O)CNc6ccc7c(c6)C(=O)N(C6CCC(=O)NC6=O)C7=O)CC5)CC4)CC3)c2)nc1C(=O)O[C@@H](C(=O)Nc1ccc(F)cc1)c1ccccc1 (stereo partly drawn) [TDH-426, (R)-2-((4-fluorophenyl)amino)-2-oxo-1-phenylethyl 3-amino-6-(1-(1-((1-((1-((2-(2,6-dioxopiperidin-3-yl)-1,3-dioxoisoindolin-5-yl)glycyl)piperidin-4-yl)methyl)piperidin-4-yl)methyl)piperidin-4-yl)-1H-pyrazol-4-yl)pyrazine-2-carboxylate]	–	–	55.42%	–
85.39%	91.54%	0.42 nM	COc1ccc(C(=O)N2CCC(C(=O)N3CCC(CCN4CCC(CN5CCC(n6cc(-c7cnc(N)c(C(=O)O[C@@H](C(=O)Nc8ccc(F)cc8)c8ccccc8)n7)cn6)CC5)CC4)CC3)CC2)cc1N1CCC(=O)NC1=O [TDH-502, (R)-2-((4-fluorophenyl)amino)-2-oxo-1-phenylethyl 3-amino-6-(1-(1-((1-(2-(1-(1-(3-(2,4-dioxotetrahydropyrimidin-1(2H)-yl)-4-methoxybenzoyl)piperidine-4-carbonyl)piperidin-4-yl)ethyl)piperidin-4-yl)methyl)piperidin-4-yl)-1H-pyrazol-4-yl)pyrazine-2-carboxylate]	–	–	54.75%	66.18%
77.96%	85.06%	1.9 nM	Nc1ncc(-c2cnn(C3CCN(C[C@H]4CC[C@H](CNC(=O)CNc5cccc6c5C(=O)N(C5CCC(=O)NC5=O)C6=O)CC4)CC3)c2)nc1C(=O)O[C@@H](C(=O)Nc1ccc(F)cc1)c1ccccc1 (stereo partly drawn) [TDH-347, (R)-2-((4-fluorophenyl)amino)-2-oxo-1-phenylethyl 3-amino-6-(1-(1-(((1r,4r)-4-((2-((2-(2,6-dioxopiperidin-3-yl)-1,3-dioxoisoindolin-4-yl)amino)acetamido)methyl)cyclohexyl)methyl)piperidin-4-yl)-1H-pyrazol-4-yl)pyrazine-2-carboxylate]	23.88%	12.87%	–	–
34.54%	42.25%	43 nM	Nc1ncc(-c2ccc(N3CCN(CCOCCOCCNC(=O)COc4cccc5c4C(=O)N(C4CCC(=O)NC4=O)C5=O)CC3)nc2)nc1C(=O)OC(C(=O)Nc1ccc(F)cc1)c1ccccc1 (centres unmarked) [TDH-261, 2-((4-fluorophenyl)amino)-2-oxo-1-phenylethyl 3-amino-6-(6-(4-(2-(2-(2-(2-((2-(2,6-dioxopiperidin-3-yl)-1,3-dioxoisoindolin-4-yl)oxy)acetamido)ethoxy)ethoxy)ethyl)piperazin-1-yl)pyridin-3-yl)pyrazine-2-carboxylate]	15.5%	14.28%	–	–
87.59%	87.7%	0.69 nM	Nc1ncc(-c2cnn(C3CCN(CCCN4CCN(CC5CCN(C(=O)CNc6ccc7c(c6)C(=O)N(C6CCC(=O)NC6=O)C7=O)CC5)CC4)CC3)c2)nc1C(=O)O[C@@H](C(=O)Nc1ccc(F)cc1)c1ccccc1 (stereo partly drawn) [TDH-441, (R)-2-((4-fluorophenyl)amino)-2-oxo-1-phenylethyl 3-amino-6-(1-(1-(3-(4-((1-((2-(2,6-dioxopiperidin-3-yl)-1,3-dioxoisoindolin-5-yl)glycyl)piperidin-4-yl)methyl)piperazin-1-yl)propyl)piperidin-4-yl)-1H-pyrazol-4-yl)pyrazine-2-carboxylate]	–	–	71.58%	−15.73%
87.94%	73.34%	0.32 nM	Nc1ncc(-c2cnn(C3CCN(CCCN4CCN(C(=O)CCc5ccc6c(c5)CN(C5CCC(=O)NC5=O)C6=O)CC4)CC3)c2)nc1C(=O)O[C@@H](C(=O)Nc1ccc(F)cc1)c1ccccc1 (stereo partly drawn) [TDH-476, (R)-2-((4-fluorophenyl)amino)-2-oxo-1-phenylethyl 3-amino-6-(1-(1-(3-(4-(3-(2-(2,6-dioxopiperidin-3-yl)-1-oxoisoindolin-5-yl)propanoyl)piperazin-1-yl)propyl)piperidin-4-yl)-1H-pyrazol-4-yl)pyrazine-2-carboxylate]	–	–	47.52%	25.23%
58.43%	75.8%	65 nM	Nc1ncc(-c2ccc(N3CCN(CCOCCOCCNC(=O)COc4ccc5c(c4)C(=O)N(C4CCC(=O)NC4=O)C5=O)CC3)nc2)nc1C(=O)OC(C(=O)Nc1ccc(F)cc1)c1ccccc1 (centres unmarked) [TDH-262, 2-((4-fluorophenyl)amino)-2-oxo-1-phenylethyl 3-amino-6-(6-(4-(2-(2-(2-(2-((2-(2,6-dioxopiperidin-3-yl)-1,3-dioxoisoindolin-5-yl)oxy)acetamido)ethoxy)ethoxy)ethyl)piperazin-1-yl)pyridin-3-yl)pyrazine-2-carboxylate]	22.59%	4.02%	–	–
87.42%	81.07%	2.2 nM	Nc1ncc(-c2cnn(C3CCN(CCOC4CCN(C(=O)Cc5cccc(NC6=CC(=O)N(C7CCC(=O)NC7=O)C6=O)c5)CC4)CC3)c2)nc1C(=O)O[C@@H](C(=O)Nc1ccc(F)cc1)c1ccccc1 (stereo partly drawn) [TDH-496, (R)-2-((4-fluorophenyl)amino)-2-oxo-1-phenylethyl 3-amino-6-(1-(1-(2-((1-(2-(3-((1-(2,6-dioxopiperidin-3-yl)-2,5-dioxo-2,5-dihydro-1H-pyrrol-3-yl)amino)phenyl)acetyl)piperidin-4-yl)oxy)ethyl)piperidin-4-yl)-1H-pyrazol-4-yl)pyrazine-2-carboxylate]	–	–	27.23%	7.85%
–	24.52%	7.1 nM	Nc1ncc(-c2cnn(C3CCN(CCOCCNC(=O)COc4ccc5c(c4)C(=O)N(C4CCC(=O)NC4=O)C5=O)CC3)c2)nc1C(=O)O[C@@H](C(=O)Nc1ccc(F)cc1)c1ccccc1 (stereo partly drawn) [TDH-168, (R)-2-((4-fluorophenyl)amino)-2-oxo-1-phenylethyl 3-amino-6-(1-(1-(2-(2-(2-((2-(2,6-dioxopiperidin-3-yl)-1,3-dioxoisoindolin-5-yl)oxy)acetamido)ethoxy)ethyl)piperidin-4-yl)-1H-pyrazol-4-yl)pyrazine-2-carboxylate]	31.24%	40.55%	–	–
